From PMC8185074, “Anchor extension: a structure-guided approach to design cyclic peptides targeting enzyme active sites” (Nature Communications, 2021)
Peptide text beside a SMILES is read from it.

Key:
Type in all cases: biochemical
[1] = target: T1, HDAC1 (Homo sapiens, UniProt Q13547); assay: HDAC1 inhibition, full IC50 measurement (Reaction Biology; fluorogenic p53 peptide RHKK(Ac)AMC); settings: t1/t2 replicates
T1 construct: purchased Reaction Biology Corporation (assay run by the CRO)
In short: (§1)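 Inhibitory peptides were acoustically dispensed with enzyme, then substrate added; 1 h at 30 °C. Developer stopped reaction; plateau endpoint fluorescence (360/460 nm) gave IC50.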

[2] = target: T2, HDAC8 (Homo sapiens, UniProt Q9BY41); assay: HDAC8 inhibition, full IC50 measurement (Reaction Biology; fluorogenic p53 peptide RHKK(Ac)AMC); settings: t1/t2 replicates
T2 construct: purchased Reaction Biology Corporation (assay run by the CRO)
T2 sequence (Q9BY41 1-377): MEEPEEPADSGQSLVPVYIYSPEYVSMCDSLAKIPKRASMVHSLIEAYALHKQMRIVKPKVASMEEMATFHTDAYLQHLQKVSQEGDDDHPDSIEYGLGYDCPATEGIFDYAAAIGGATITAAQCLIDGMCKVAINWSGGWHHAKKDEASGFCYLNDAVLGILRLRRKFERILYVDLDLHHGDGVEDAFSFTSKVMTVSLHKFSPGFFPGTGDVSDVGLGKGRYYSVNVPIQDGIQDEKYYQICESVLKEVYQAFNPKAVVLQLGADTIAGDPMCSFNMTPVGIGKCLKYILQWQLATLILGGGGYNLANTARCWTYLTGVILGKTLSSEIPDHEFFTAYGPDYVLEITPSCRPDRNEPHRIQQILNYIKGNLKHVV
In short: as §1

[3] = target: T3, HDAC2 (Homo sapiens, UniProt Q92769); assay: HDAC2 inhibition, full IC50 measurement (Reaction Biology; fluorogenic p53 peptide RHKK(Ac)AMC)
T3 construct: purchased Reaction Biology Corporation (assay run by the CRO)
T3 sequence (Q92769 whole entry): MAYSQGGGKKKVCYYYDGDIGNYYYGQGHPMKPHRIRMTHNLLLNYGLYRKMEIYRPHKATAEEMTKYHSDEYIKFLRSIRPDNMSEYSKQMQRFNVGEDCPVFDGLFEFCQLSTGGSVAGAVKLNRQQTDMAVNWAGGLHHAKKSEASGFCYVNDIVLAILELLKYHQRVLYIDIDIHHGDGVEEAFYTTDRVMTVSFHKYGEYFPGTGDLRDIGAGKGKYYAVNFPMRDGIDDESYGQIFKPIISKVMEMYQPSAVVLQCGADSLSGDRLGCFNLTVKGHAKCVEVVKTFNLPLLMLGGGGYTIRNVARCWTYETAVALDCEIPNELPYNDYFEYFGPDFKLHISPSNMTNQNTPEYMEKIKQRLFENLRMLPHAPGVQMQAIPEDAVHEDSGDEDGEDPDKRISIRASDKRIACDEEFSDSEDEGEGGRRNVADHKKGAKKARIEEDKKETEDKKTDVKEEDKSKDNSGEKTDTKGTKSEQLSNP
In short: as §1

[4] = peptide conc. 1.00E-05 M, listed as des1.1.1_t1
[5] = peptide conc. 1.00E-05 M, listed as des1.1.1_t2
[6] = peptide conc. 1.11E-06 M, listed as des1.1.1_t1
[7] = peptide conc. 1.11E-06 M, listed as des1.1.1_t2
[8] = peptide conc. 1.23E-07 M, listed as des1.1.1_t1
[9] = peptide conc. 1.23E-07 M, listed as des1.1.1_t2
[10] = peptide conc. 1.37E-08 M, listed as des1.1.1_t1
[11] = peptide conc. 1.37E-08 M, listed as des1.1.1_t2
[12] = peptide conc. 1.52E-09 M, listed as des1.1.1_t1
[13] = peptide conc. 1.52E-09 M, listed as des1.1.1_t2
[14] = peptide conc. 3.33E-06 M, listed as des1.1.1_t1
[15] = peptide conc. 3.33E-06 M, listed as des1.1.1_t2
[16] = peptide conc. 3.70E-07 M, listed as des1.1.1_t1
[17] = peptide conc. 3.70E-07 M, listed as des1.1.1_t2
[18] = peptide conc. 4.12E-08 M, listed as des1.1.1_t1
[19] = peptide conc. 4.12E-08 M, listed as des1.1.1_t2
[20] = peptide conc. 4.57E-09 M, listed as des1.1.1_t1
[21] = peptide conc. 4.57E-09 M, listed as des1.1.1_t2
[22] = peptide conc. 5.08E-10 M, listed as des1.1.1_t1
[23] = peptide conc. 5.08E-10 M, listed as des1.1.1_t2

T1 sequence (Q13547 whole entry): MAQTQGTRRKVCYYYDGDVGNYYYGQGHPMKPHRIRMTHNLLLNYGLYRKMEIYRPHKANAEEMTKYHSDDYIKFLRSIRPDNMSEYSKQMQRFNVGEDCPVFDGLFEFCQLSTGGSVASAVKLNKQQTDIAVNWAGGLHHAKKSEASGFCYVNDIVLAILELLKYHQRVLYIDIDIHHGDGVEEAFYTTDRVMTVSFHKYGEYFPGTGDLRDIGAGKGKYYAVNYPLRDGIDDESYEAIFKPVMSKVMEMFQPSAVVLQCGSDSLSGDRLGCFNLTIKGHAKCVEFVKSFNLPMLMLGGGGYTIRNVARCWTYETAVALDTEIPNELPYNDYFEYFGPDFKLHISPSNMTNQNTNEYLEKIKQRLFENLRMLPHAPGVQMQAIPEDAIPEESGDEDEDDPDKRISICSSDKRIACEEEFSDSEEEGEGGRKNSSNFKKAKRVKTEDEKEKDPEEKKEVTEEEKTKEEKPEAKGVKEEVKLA

NCCCC[C@H]1NC(=O)[C@H](CCC(N)=O)NC(=O)[C@H](CCC(=O)O)NC(=O)[C@@H]2CCCN2C(=O)[C@H](CC(N)=O)NC(=O)[C@H](CCCCCS)NC(=O)CNC(=O)[C@H](Cc2c[nH]c3ccccc23)NC1=O [des1.1.1, SHA-Asn-Pro-Glu-Gln-dLys-Trp-Gly] (HELM PEPTIDE1{E.Q.[dK].W.G.[O=C([C@H](CCCCCS)N[*:1])[*:2]].N.P}$PEPTIDE1,PEPTIDE1,1:R1-8:R2$$$V2.0)
HDAC1 activity raw data (signal) [1, 4]: 15449
HDAC1 activity raw data (signal) [1, 5]: 6031
HDAC1 activity raw data (signal) [1, 6]: 152129
HDAC1 activity raw data (signal) [1, 7]: 83277
HDAC1 activity raw data (signal) [1, 8]: 509662
HDAC1 activity raw data (signal) [1, 9]: 396625
HDAC1 activity raw data (signal) [1, 10]: 648866
HDAC1 activity raw data (signal) [1, 11]: 876365
HDAC1 activity raw data (signal) [1, 12]: 760286
HDAC1 activity raw data (signal) [1, 13]: 1050479
HDAC1 activity raw data (signal) [1, 14]: 53777
HDAC1 activity raw data (signal) [1, 15]: 31360
HDAC1 activity raw data (signal) [1, 16]: 243491
HDAC1 activity raw data (signal) [1, 17]: 191722
HDAC1 activity raw data (signal) [1, 18]: 677146
HDAC1 activity raw data (signal) [1, 19]: 657201
HDAC1 activity raw data (signal) [1, 20]: 723834
HDAC1 activity raw data (signal) [1, 21]: 981941
HDAC1 activity raw data (signal) [1, 22]: 712167
HDAC1 activity raw data (signal) [1, 23]: 1083035
HDAC8 activity raw data (signal) [2, 4]: 258617
HDAC8 activity raw data (signal) [2, 5]: 8333740
HDAC8 activity raw data (signal) [2, 6]: 532680
HDAC8 activity raw data (signal) [2, 7]: 26455057
HDAC8 activity raw data (signal) [2, 8]: 587120
HDAC8 activity raw data (signal) [2, 9]: 38904462
HDAC8 activity raw data (signal) [2, 10]: 802422
HDAC8 activity raw data (signal) [2, 11]: 44804049
HDAC8 activity raw data (signal) [2, 12]: 956971
HDAC8 activity raw data (signal) [2, 13]: 49754188
HDAC8 activity raw data (signal) [2, 14]: 289575
HDAC8 activity raw data (signal) [2, 15]: 18105294
HDAC8 activity raw data (signal) [2, 16]: 559845
HDAC8 activity raw data (signal) [2, 17]: 34440414
HDAC8 activity raw data (signal) [2, 18]: 916202
HDAC8 activity raw data (signal) [2, 19]: 43441318
HDAC8 activity raw data (signal) [2, 20]: 928568
HDAC8 activity raw data (signal) [2, 21]: 47580068
HDAC8 activity raw data (signal) [2, 22]: 688133
HDAC8 activity raw data (signal) [2, 23]: 50930211
2-Selectivity: fold potency for HDAC2 over HDAC6 [3]: 0.17 fold
HDAC2 activity raw data (signal) ([3]; Conc. 1.00E-05 M, t1): 51389
HDAC2 activity raw data (signal) ([3]; Conc. 1.11E-06 M, t1): 176321
HDAC2 activity raw data (signal) ([3]; Conc. 1.23E-07 M, t1): 517115
HDAC2 activity raw data (signal) ([3]; Conc. 1.23E-07 M, t2): 516299
HDAC2 activity raw data (signal) ([3]; Conc. 1.37E-08 M, t1): 670648
HDAC2 activity raw data (signal) ([3]; Conc. 1.37E-08 M, t2): 890041
HDAC2 activity raw data (signal) ([3]; Conc. 1.52E-09 M, t1): 768698
HDAC2 activity raw data (signal) ([3]; Conc. 1.52E-09 M, t2): 986775
HDAC2 activity raw data (signal) ([3]; Conc. 3.33E-06 M, t1): 91275
HDAC2 activity raw data (signal) ([3]; Conc. 3.70E-07 M, t1): 346891
HDAC2 activity raw data (signal) ([3]; Conc. 4.12E-08 M, t1): 680634
HDAC2 activity raw data (signal) ([3]; Conc. 4.12E-08 M, t2): 655155
HDAC2 activity raw data (signal) ([3]; Conc. 4.57E-09 M, t1): 833526
HDAC2 activity raw data (signal) ([3]; Conc. 4.57E-09 M, t2): 959526
HDAC2 activity raw data (signal) ([3]; Conc. 5.08E-10 M, t1): 761364
HDAC2 activity raw data (signal) ([3]; Conc. 5.08E-10 M, t2): 1054303
